In ChEMBL document CHEMBL1201862, “PubChem BioAssay data set” (2004):
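In this assay, cells in 96-well plates receive the compound at five concentrations for 48 hours. Endpoints are linearly interpolated between the surrounding concentrations. Abbreviation: GI50, concentration required for 50% inhibition of growth.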 Activity calls are given as the source filed them. Rule as the data show it: active = GI50 up to about 1.1 µM and inactive = higher.

Experiments:
Assay in all cases: DTP human tumour cell line panel, 48 h
[1] = system: TK-10
[2] = system: UO-31
[3] = system: HCC 2998
[4] = system: UACC-257
[5] = system: HCT-116
[6] = system: EKVX
[7] = system: NCI-H23
[8] = system: OVCAR-5
[9] = system: NCI-H460
[10] = system: SK-OV-3
[11] = system: SK-MEL-5
[12] = system: HOP-62
[13] = system: OVCAR-4
[14] = system: SK-MEL-2
[15] = system: SN12C
[16] = system: IGROV-1
[17] = system: ACHN

Measured: GI50

CCCCNC1=C(C(=O)OCC)/C(=N/NC(=O)c2ccccc2O)CO1
inactive: [1] 98.4 µM | [2] 4.54 µM | [3] 34.4 µM | [4] 2.82 µM | [5] 6.68 µM | [6] > 100 µM | [7] 18.8 µM | [8] 59.7 µM | [9] 33.3 µM | [10] > 100 µM | [11] 29.2 µM | [12] 17.6 µM | [13] 19.4 µM | [14] 18.4 µM | [15] 61 µM | [16] 8.99 µM

CCOC(=O)c1cc2c(nc1N)-c1ncccc1CC2
inactive: [1] > 100 µM | [2] 88.1 µM | [3] > 100 µM | [4] 38.5 µM | [5] 44.3 µM | [6] 43.8 µM | [7] 37.2 µM | [17] 61.7 µM | [8] > 100 µM | [9] 77.1 µM | [10] 45.1 µM | [11] 38.9 µM | [12] 83.8 µM | [13] > 100 µM | [14] > 100 µM | [15] 94.4 µM | [16] 49.4 µM

CC1CCC(=O)NCCCCC(=O)N1 (stereo not drawn)
inactive: [1] > 100 µM | [2] > 100 µM | [3] > 100 µM | [4] > 100 µM | [5] > 100 µM | [6] > 100 µM | [7] > 100 µM | [17] > 100 µM | [8] > 100 µM | [9] > 100 µM | [10] > 100 µM | [11] > 100 µM | [12] > 100 µM | [13] > 100 µM | [14] > 100 µM | [15] > 100 µM | [16] > 100 µM

O=C(c1cc2ccccc2o1)N(Cc1ccccc1)c1ccccc1
inactive: [1] 33.6 µM | [2] 22.9 µM | [3] 23.4 µM | [4] 20.3 µM | [5] 16.9 µM | [6] 27 µM | [7] 27 µM | [17] 26.6 µM | [8] 30.3 µM | [9] 26.9 µM | [10] 33.2 µM | [11] 16.1 µM | [12] 30.5 µM | [14] 33.8 µM | [15] 18 µM | [16] 35.5 µM

CCOP(=O)(C/C(O)=C1\C(=O)C(CCCCNC(=O)OC(C)(C)C)N(Cc2ccccc2)C1=O)OCC (stereo not drawn)
inactive: [1] > 100 µM | [2] > 100 µM | [3] > 100 µM | [4] > 100 µM | [5] > 100 µM | [6] > 100 µM | [7] > 100 µM | [17] > 100 µM | [8] > 100 µM | [9] > 100 µM | [10] > 100 µM | [11] > 100 µM | [12] > 100 µM | [13] 94.2 µM | [14] > 100 µM | [15] > 100 µM | [16] > 100 µM

CN1CCCNCCN(CCc2ccccn2)CCCN(C)CC1
inactive: [1] > 100 µM | [2] > 100 µM | [3] > 100 µM | [4] > 100 µM | [5] > 66.2 µM | [6] > 91.4 µM | [7] > 100 µM | [17] > 100 µM | [8] > 100 µM | [9] > 67.3 µM | [10] > 100 µM | [11] > 100 µM | [12] > 100 µM | [13] > 58.5 µM | [14] > 100 µM | [15] > 100 µM | [16] > 100 µM

COc1ccc2c(c1)C/C(=C\c1ccc(O)c(OC)c1)C2=O
inactive: [1] > 100 µM | [2] > 100 µM | [3] > 100 µM | [6] > 100 µM | [7] > 100 µM | [17] > 100 µM | [8] > 100 µM | [9] > 100 µM | [10] > 100 µM | [11] > 10 µM | [13] > 100 µM | [15] > 100 µM | [16] > 10 µM

CC(=O)CCCCCCCCCCCC[C@@H]1CC[C@H](C)[C@H](O)N1
inactive: [1] > 100 µM | [2] 67.1 µM | [3] > 100 µM | [4] > 100 µM | [5] > 100 µM | [6] > 100 µM | [7] > 100 µM | [17] > 100 µM | [8] > 100 µM | [9] > 100 µM | [10] > 100 µM | [11] 46.9 µM | [12] > 100 µM | [14] > 100 µM | [16] > 100 µM
